The subject of data set [1] is Trichophyton mentagrophytes SM-110. Nature of the data set: Antifungal activity evaluation test: minimum inhibitory concentration (MIC), broth dilution by reference to CLSI M38-A2. The class given is cell-based. To be noted: SM110, read-out: MIC (T. menta.). Put shortly: (§1)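 MIC read visually as lowest concentration inhibiting growth by at least 80% relative to control after 4 days at 35° C. Trichophyton strains inoculated at 2×10^3 cells/mL final in MOPS-buffered RPMI 1640 (pH 7.0); compounds as 2-fold DMSO series, CLSI M38-A2 basis.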

Data set [2] deals with Trichophyton rubrum KD-1130. Described as above. The class given is cell-based. To be noted: KD1130, read-out: MIC (T. rubrum). The method, boiled down:
as §1

Data set [3] in a line: Nail permeability test through human nail using Franz cell. To be noted: 5% in propylene glycol:ethanol (1:4), 32° C. Format: in vitro ADME. How it is done: Permeability through human nail was measured by the method shown below using Franz cell. • Test Preparation: A test compound was dissolved in a propylene glycol:ethanol (1:4) mixed solution at a concentration of 5% to give a test preparation. As control compounds terbinafine and amorolfine were used. • (1) Human nail (thickness 300-500 μm) was fixed using a nail adapter for Franz cell, and mounted on Franz cell. • (2) The receptor chamber of the Franz cell was filled with phosphate buffer, and placed in a thermostatic chamber at 32° C. • (3) A test preparation was applied to the aforementioned human nail at 61 μL/cm^2, after which a receptor solution was collected over days, and the concentration of the test compound in the receptor was measured by a liquid chromatography mass spectrometry method (LC/MS/MS). The cumulative amount of drug permeation (μg/cm^2) was calculated from the measured drug concentration in the receptor. A cumulative amount of drug permeation relative to the time after start of the test was plotted and the slope at final 4 time points was taken as Flux (μg/cm^2/day). The abbreviations in the Table mean the following compounds • TBF: terbinafine • AMF: amorolfine

The values below come from patent publication US10647675B2 (priority 2015, dated 2020).

SMILES strings stand for the structures. In brackets after ≈: the same amount, converted by molar mass. A value given as a limit tells only on which side of the number the result lay.

As usually defined, the MIC is the lowest concentration that inhibits growth of the organism.

As for `CN(C/C=C/C#CC(C)(C)C)Cc1cccc2ccccc12` [TBF, terbinafine, reference compound], the MIC in data set [1] and in data set [2] was not above 0.1 µg/mL throughout. Also, in data set [3], the “nail permeability (Flux)” value is reported as “D (D: <0.001)”.
On to `CCC(C)(C)c1ccc(CC(C)CN2C[C@@H](C)O[C@@H](C)C2)cc1` (some centres unmarked) [AMF, amorolfine, reference compound], for which the MIC in data set [1] and in data set [2] was not above 0.1 µg/mL in each case. For the same compound, the “nail permeability (Flux)” value in data set [3] is “D (D: <0.001)”.
As to `CC(F)(F)c1ccc(Oc2ncccc2-c2cccc3c(Cl)cnn23)cn1` [I-116, 3-chloro-7-(2-{[6-(1,1-difluoroethyl)pyridin-3-yl]oxy}pyridin-3-yl)pyrazolo[1,5-a]pyridine], the MIC in data set [1] and in data set [2] was not above 0.1 µg/mL throughout.
Regarding `COc1ccncc1-c1cccnc1Oc1ccc(CC(F)(F)F)cc1` [I-249, 4′-methoxy-2-[4-(2,2,2-trifluoroethyl)phenoxy]-3,3′-bipyridine], the minimum inhibitory concentration (MIC) in data set [1] and in data set [2] was 0.2 to 0.78 µg/mL (≈ 0.555 to 2.16 µM) in each case.
In the case of `CCCN(C)c1ncc(Oc2ncccc2-c2cc(Cl)cnc2OC)cn1` [I-452], the MIC in data set [1] and in data set [2] was not above 0.1 µg/mL in each case.
Turning to `Fc1ccc(-c2cccnc2Oc2ccc(C(F)(F)F)nc2)c(F)c1` [I-8, 3-(2,4-difluorophenyl)-2-{[6-(trifluoromethyl)pyridin-3-yl]oxy}pyridine], the MIC in data set [1] and in data set [2] was not above 0.1 µg/mL throughout.
`COc1ccc(F)cc1-c1cncnc1Oc1ccc(C(C)(F)F)nc1` [I-360, 4-{[6-(1,1-difluoroethyl)pyridin-3-yl]oxy}-5-(5-fluoro-2-methoxyphenyl)pyrimidine]: the MIC in data set [1] and in data set [2] was not above 0.1 µg/mL in each case.
On to `COc1ccncc1-c1cccnc1Oc1ccc(C(C)(F)F)cc1F` [I-302], for which the MIC in data set [1] and in data set [2] was not above 0.1 µg/mL in each case.
`COc1ncc(Cl)cc1-c1cccnc1Oc1cnc(C(F)(F)F)nc1` [I-180, 5-chloro-2-methoxy-2′-{[2-(trifluoromethyl)pyrimidin-5-yl]oxy}-3,3′-bipyridine]: the MIC in data set [1] and in data set [2] was not above 0.1 µg/mL each time.
Regarding `COc1ccccc1-c1nccnc1Oc1ccc2c(c1)CCCC2` [I-315], the MIC in data set [1] and in data set [2] was not above 0.1 µg/mL each time.
For the compound `COc1cccc(-c2cccnc2Oc2ccc(C(C)(F)F)nc2)n1` [I-95, 2′-{[6-(1,1-difluoroethyl)pyridin-3-yl]oxy}-6-methoxy-2,3′-bipyridine], the MIC in data set [1] and in data set [2] was 0.2 to 0.78 µg/mL (≈ 0.583 to 2.27 µM) throughout.
For the compound `CC(F)(F)c1ccc(Oc2ncccc2-c2cncc3ccccc23)cn1` [I-109, 4-(2-{[6-(1,1-difluoroethyl)pyridin-3-yl]oxy}pyridin-3-yl)isoquinoline], the MIC in data set [1] and in data set [2] was not above 0.1 µg/mL in each case.
On to `CC(F)(F)c1ccc(Oc2ncccc2-c2cccnc2-n2cccn2)cn1` [I-107, 2-{[6-(1,1-difluoroethyl)pyridin-3-yl]oxy}-2′-(1H-pyrazol-1-yl)-3,3′-bipyridine], for which the MIC in data set [1] and in data set [2] was 1.56 to 6.25 µg/mL (≈ 4.11 to 16.5 µM) each time.
Take `FC(F)(F)c1ccc(Oc2ncccc2-c2cccn3ccnc23)cc1` [I-229, 8-{2-[4-(trifluoromethyl)phenoxy]pyridin-3-yl}imidazo[1,2-a]pyridine]: the MIC in data set [1] lay within 0.2 to 0.78 µg/mL (≈ 0.563 to 2.2 µM); in data set [2], 1.56 to 6.25 µg/mL (≈ 4.39 to 17.6 µM).
Take `CCc1ccc(Oc2ncccc2-c2cnccc2OC)c(F)c1` [I-394, 2-(4-ethyl-2-fluorophenoxy)-4′-methoxy-3,3′-bipyridine]: the minimal inhibitory concentration (MIC) in data set [1] and in data set [2] was not above 0.1 µg/mL throughout.
Turning to `Cc1cnn(-c2ccc(Oc3ncccc3-c3cnccc3C)cc2)c1` [I-432], the MIC in data set [1] and in data set [2] was not above 0.1 µg/mL in each case.
For `COc1ccccc1-c1cccnc1Oc1ccc(C(F)F)c(C)c1` [I-455], the MIC in data set [1] and in data set [2] was not above 0.1 µg/mL throughout.
As to `COCC(F)(F)c1ccc(Oc2ncccc2-c2ccccc2OC)cn1` [I-145, 2-{[6-(1,1-difluoro-2-methoxyethyl)pyridin-3-yl]oxy}-3-(2-methoxyphenyl)pyridine], the MIC in data set [1] and in data set [2] was not above 0.1 µg/mL each time.
For the compound `COc1cc(F)ccc1-c1cccnc1Oc1cnc(C(F)(F)F)nc1` [I-179, 5-{[3-(4-fluoro-2-methoxyphenyl)pyridin-2-yl]oxy}-2-(trifluoromethyl)pyrimidine], the MIC in data set [1] and in data set [2] was not above 0.1 µg/mL each time.
`COc1ccccc1-c1cccnc1Oc1cnc2c(c1)CCCC2=O` [I-141, 3-{[3-(2-methoxyphenyl)pyridin-2-yl]oxy}-6,7-dihydroquinolin-8(5H)-one]: the MIC in data set [1] and in data set [2] was 1.56 to 6.25 µg/mL (≈ 4.5 to 18 µM) each time.
On to `FC(F)(F)c1ccc(Oc2ncccc2-c2cccc3cccnc23)cn1` [I-34, 8-(2-{[6-(trifluoromethyl)pyridin-3-yl]oxy}pyridin-3-yl)quinoline], for which the MIC in data set [1] and in data set [2] was not above 0.1 µg/mL throughout.
For the compound `COc1ccccc1-c1cccnc1Oc1ccc(C(F)F)cc1` [I-444], the MIC in data set [1] and in data set [2] was not above 0.1 µg/mL each time.
For `Fc1cc2c(c(-c3cccnc3Oc3ccc(C(F)(F)F)nc3)c1)OCC2` [I-41, 3-(5-fluoro-2,3-dihydrobenzofuran-7-yl)-2-{[6-(trifluoromethyl)pyridin-3-yl]oxy}pyridine], the MIC in data set [1] and in data set [2] was not above 0.1 µg/mL in each case.
As to `Cc1nsc(-c2cccnc2Oc2ccc(C(F)(F)F)nc2)c1Br` [I-377, 4-bromo-3-methyl-5-(2-{[6-(trifluoromethyl)pyridin-3-yl]oxy}pyridin-3-yl)isothiazole], the MIC in data set [1] and in data set [2] was not above 0.1 µg/mL throughout.
In the case of `COC(=O)c1ccccc1-c1cccnc1Oc1ccc(C(F)(F)F)nc1` [I-20, methyl 2-(2-{[6-(trifluoromethyl)pyridin-3-yl]oxy}pyridin-3-yl)benzoate], the values for the MIC in data set [1] and in data set [2] were 1.56 to 6.25 µg/mL (≈ 4.17 to 16.7 µM) and 0.2 to 0.78 µg/mL (≈ 0.534 to 2.08 µM), respectively.
Turning to `COc1cc(-c2cncnc2Oc2ccc(C(F)F)nc2)c(F)cc1F` [I-363, 5-(2,4-difluoro-5-methoxyphenyl)-4-{[6-(difluoromethyl)pyridin-3-yl]oxy}pyrimidine], the MIC in data set [1] and in data set [2] was not above 0.1 µg/mL each time.
Regarding `CCc1ccc(Oc2ncccc2-c2cnccc2C)cc1` [I-289, 2-(4-ethylphenoxy)-4′-methyl-3,3′-bipyridine], the MIC in data set [1] and in data set [2] was not above 0.1 µg/mL in each case.
